{"source": "patent EP0583821A1", "about": "“Atriopeptins, guanylate cyclase activators, and phosphodiesterase inhibitors as treatment for glaucoma, hydrocephalus and cerebral edema (cranial fluid volume dysfunction)” (THE GENERAL HOSPITAL CORPORATION, priority 1987, dated 1988)", "key": {"rabbits [1]": {"system": "rabbits", "test": "Systemic blood pressure and pulse rate (tail cuff) after eye drops", "type": "in vivo, rabbit", "settings": "0.03% eye drops", "protocol": "(§1) The effect of nitroglycerine eye drops on rabbit intraocular pressure was also measured. The IOP of 8 conscious, male albino rabbits (3-4 kg) was measured by applanation pnumatonometry after topical anesthesia with 0.4% benoxinate. Nitroglycerine in phosphate buffered saline, pH 7.4, was given unilaterally, in two 25µl drops spaced five minutes apart. Blood pressure and pulse rate were measured by a photoelectric detector using an automated external tail cuff. […] By 24 hours, pressure had returned to normal."}, "volunteer human": {"system": "volunteer human", "test": "Eye drop in a volunteer human: IOP, blood pressure and pulse", "type": "in vivo", "settings": "50µl of 0.1% aqueous solution in one eye", "protocol": "The effect of administration of a nitroglycerine eye drop preparation (50µl of 0.1% aqueous solution in one eye) in a volunteer human is illustrated in Figure 14. IOP was measured by applanation pnumatonometry and blood pressure and pulse were measured by arm cuff."}, "guanylate cyclase": {"system": "guanylate cyclase", "test": "Guanylate cyclase activation in crude broken-cell preparation of ciliary process", "type": "biochemical, rabbit", "settings": "low concentrations", "protocol": "Generally, the broken cell preparations are prepared according to the method described in a paper by Nathanson et al., (Molecular Pharmacology 20:68 (1981), which is herein incorporated by reference. Choroid epithelial cells are prepared as described in Example 1. To measure activity of atriopeptins, analogues, or agonists thereof, washed particulate cell preparations are prepared by using the pellet obtained following high speed centrifugation. To measure direct activators of guanylate cyclase, the crude broken-cell preparation without centrifugation is used. Guanylate cyclase activity is measured in appropriate buffer-containing GTP, cofactors, tissue fraction, and the compound to be tested. […] Cyclic GMP can be measured by any test which indicates the presence thereof, typically by the radioimmunoassay as described in Example 6. […] Ka^B, where B is the test compound, is compared with the constant (Ka^ANF) determined in an analogous way using rat atrial natriuretic factor (rANF) as a standard. […]\nThe effect of rANP on membrane-bound guanylate cyclase and adenylate cyclase activity in various brain-barrier tissues and tissue fractions from rabbit was compared with its activity in cerebrum and cerebellum. Guanylate cyclase was measured as the rate of cyclic GMP formation by modifications of the technique of Waldman et al., supra, incorporated herein by reference. […]"}, "rabbits [2]": {"system": "rabbits", "test": "Intraocular pressure and ocular observations after topical (eye drop) application", "type": "in vivo, rabbit", "protocol": "The measurement of intraocular pressure (IOP), was performed using procedures similar to those described in Nathanson, Brit. J. Pharmacol., 73:97 (1981) and Nathanson, Current Eye Res., 4:191 (1985). Briefly, male (3-5 kg), New Zealand white rabbits were housed under standard conditions and exposed to a 12 hr light-dark cycle. IOP was measured with a Perkins applanation tonometer after topical anesthesia with 0.4% benoxinate (and 0.25% sodium fluorescein). The tonometer had been calibrated previously by connecting the anterior chamber of enucleated rabbit eyes to a manometer (and reservoir) and taking tonometer readings at different pressures. A number of preliminary IOP readings were made in order to accommodate the animals to the measurement procedure. Readings were then taken just prior to drug or vehicle injection and at 3, 9, 20, 27, 44, 51, 72, and 144 hours post-injection.\nA potent PDE inhibitor of the arylxanthine class, 1,3-dibutylxanthine, was applied unilaterally and topically to rabbit eyes in a 0.5% solution. […] The IOP was decreased 4 mm (Hg) in the ipsilateral eye (Figure 8).\nAgain there was about a 4 mm (Hg) decrease in intraocular pressure. […] This xanthine inhibited the enzyme with an IC₅₀ (concentration necessary for 50% enzyme inhibition) of 25 uM.\nas §1"}}}
{"compound": "O=[N+]([O-])OCC(CO[N+](=O)[O-])O[N+](=O)[O-]", "note": "[nitroglycerine, 1,2,3-propanetriol trinitrate]", "values": [{"measurement": "change in pulse rate or in systolic, diastolic or mean blood pressure", "setting": "rabbits [1]", "value": "no significant change"}, {"measurement": "effect on IOP", "setting": "volunteer human", "value": "significantly decreased IOP"}, {"measurement": "systemic blood pressure or pulse", "setting": "volunteer human", "value": "without change"}, {"measurement": "stimulation of basal guanylate cyclase activity", "setting": "guanylate cyclase", "value": "significant stimulation"}, {"measurement": "decrease in IOP at maximum", "setting": "rabbits [2]; 0.03% (gm/100ml) solution, two 25µl drops, 8 rabbits", "value": 5.2, "unit": "mm Hg"}, {"measurement": "IOP at six hours", "setting": "rabbits [2]; 0.03% solution", "value": "still significantly reduced"}, {"measurement": "time of greatest IOP decrease", "setting": "rabbits [2]; 0.03% solution", "value": "greatest at one hour"}, {"measurement": "time until pressure had returned to normal", "setting": "rabbits [2]; 0.03% solution", "value": "≤ 24", "unit": "h"}, {"measurement": "effect of higher doses on IOP", "setting": "rabbits [2]; 50µl eye drops, doses above 0.03%, Fig. 13", "value": "no additional decrease in IOP"}, {"measurement": "effect of lower doses on IOP", "setting": "rabbits [2]; 50µl eye drops, lower doses, Fig. 13", "value": "less effective"}, {"measurement": "conjunctival inflammation and pupillary diameter", "setting": "rabbits [2]; all doses", "value": "At no dose did conjunctival inflammation nor any change in pupillary diameter occur"}, {"measurement": "contralateral decrease in pressure relative to that seen ipsilaterally", "setting": "rabbits [2]; higher doses", "value": "40-75%"}, {"measurement": "hyperemia of the conjunctival vessels", "setting": "rabbits [2]; higher doses (0.1%)", "value": "slight, transient (five minutes) hyperemia"}]}
